Assay results taken from article PMC4001856 (Brain research, 2013).

Biological target: APP (amyloid precursor protein) (Homo sapiens, UniProt P05067)
Assay: SPR
Assay type: binding

APP (amyloid precursor protein), sequence (P05067 230-624 isoform P05067-4): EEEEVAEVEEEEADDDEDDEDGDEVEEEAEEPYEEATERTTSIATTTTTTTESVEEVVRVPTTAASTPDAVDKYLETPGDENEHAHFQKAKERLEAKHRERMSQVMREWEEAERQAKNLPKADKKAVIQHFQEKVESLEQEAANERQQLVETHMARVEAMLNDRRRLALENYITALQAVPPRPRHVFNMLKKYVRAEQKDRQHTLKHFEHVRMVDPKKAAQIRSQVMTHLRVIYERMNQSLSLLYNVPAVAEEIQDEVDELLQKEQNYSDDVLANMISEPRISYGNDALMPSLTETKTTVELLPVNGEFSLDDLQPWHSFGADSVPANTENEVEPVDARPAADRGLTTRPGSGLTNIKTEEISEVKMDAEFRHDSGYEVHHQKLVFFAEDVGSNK

`CN1[C@@H]2CC[C@H]1C[C@@H](OC(=O)c1c[nH]c3ccccc13)C2` [tropisetron] was tested. Which Kd did it give?
Its Kd is 0.9 µM.
